SMILES strings stand for the structures.

The test system of this test is MM.1S cells. Put plainly: Proliferation inhibition (IC50) in multiple myeloma cells, cell viability with WST/CCK-8 reagent.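 Note: MM.1S B-lymphoblast cells at 15,000 per well in 100 µL serum-containing RPMI1640, experiment run more than three times.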 To be noted: Homo sapiens, MM1.S, 72 h, read-out: IC50 (half inhibitory concentration).
Procedure: Multiple myeloma cell line: MM.1S (B lymphoblast), purchased from ATCC (American Type Culture Collection). Culture medium was RPMI1640 supplemented with 10% FBS and 1% Penicillin-Streptomycin. The cells used were identified as correct cells by STR cells and negative for mycoplasma by routine inspections.
IC50 values of the compounds of the present disclosure were measured using Cell Titer Blue, Cell Titer GLO, or WST reagent from Promega Company. Assay details are as follows: Cells were seeded in 100 μL RPMI1640 complete medium containing serum at a density of 15,000 cells/well.
The experiment was repeated more than three times.
As to `O=C1CCC(N2Cc3c(OCCCCCCNCC45CC6CC(CC(C6)C4)C5)cccc3C2=O)C(=O)N1` (centres unmarked) [SIAIS1222165, 3-(4-((6-(((adamantan-1-yl)methyl)amino)hexyl)oxy)-1-oxoisoindolin-2-yl)piperidine-2,6-dione], the IC50 worked out at 0.204 nM.
For `O=C1CCC(N2Cc3c(OCCCCCCCCNC45CC6CC(CC(C6)C4)C5)cccc3C2=O)C(=O)N1` (centres unmarked) [SIAIS1222167, 3-(4-((8-((adamantan-1-yl)amino)octyl)oxy)-1-oxoisoindolin-2-yl)piperidine-2,6-dione] the value was 0.426 nM; for `CN(CCCCCCCOc1cccc2c1CN(C1CCC(=O)NC1=O)C2=O)C12CC3CC(CC(C3)C1)C2` (centres unmarked) [SIAIS1222181, 3-(4-((7-((adamantan-1-yl)(methyl)amino)heptyl)oxy)-1-oxoisoindolin-2-yl)piperidine-2,6-dione], 0.052 nM; for `O=C1CCC(N2C(=O)c3cccc(NCCCCCCCNC4CC5(CCC5)C4)c3C2=O)C(=O)N1` (centres unmarked) [SIAIS1222189, 2-(2,6-dioxopiperidin-3-yl)-4-((7-(spiro[3.3]heptan-2-ylamino)heptyl)amino)isoindoline-1,3-dione], 0.324 nM.
For `CC(NCCCCCCNc1cccc2c1C(=O)N(C1CCC(=O)NC1=O)C2=O)C12CC3CC(CC(C3)C1)C2` (centres unmarked) [SIAIS1222191, 4-((6-((1-(adamantan-1-yl)ethyl)amino)hexyl)amino)-2-(2,6-dioxopiperidin-3-yl)isoindoline-1,3-dione] the value was 2.22 nM.
For `CC(NCCCCCCCNc1cccc2c1C(=O)N(C1CCC(=O)NC1=O)C2=O)C12CC3CC(CC(C3)C1)C2` (centres unmarked) [SIAIS1222193] the value was 2.69 nM.
`O=C1CCC(N2Cc3c(OCCCCCCCNC4CC5(CCC5)C4)cccc3C2=O)C(=O)N1` (centres unmarked) [SIAIS1224013, 3-(1-oxo-4-((7-(spiro[3.3]heptan-2-ylamino)heptyl)oxy)isoindolin-2-yl)piperidine-2,6-dione]: the IC50 was found to be 0.534 nM.
Under `O=C1CCC(N2Cc3c(CCCCCCCNC45CC6CC(CC(C6)C4)C5)cccc3C2=O)C(=O)N1` (centres unmarked) [SIAIS1224041, 3-(4-(7-((adamantan-1-yl)amino)heptyl)-1-oxoisoindolin-2-yl)piperidine-2,6-dione] stands 1.11 nM; under `O=C1CCC(N2Cc3c(CCCCCCNC45CC6CC(CC(C6)C4)C5)cccc3C2=O)C(=O)N1` (centres unmarked) [SIAIS1224043, 3-(4-(6-((adamantan-1-yl)amino)hexyl)-1-oxoisoindolin-2-yl)piperidine-2,6-dione], 0.63 nM; under `O=C1CCC(N2Cc3c(NCc4ccc(CCNC56CC7CC(CC(C7)C5)C6)cc4)cccc3C2=O)C(=O)N1` (centres unmarked) [SIAIS1227027, 3-(4-((4-(2-((adamantan-1-yl)amino)ethyl)benzyl)amino)-1-oxoisoindolin-2-yl)piperidine-2,6-dione], 0.32 ± 0.09 nM.
In the case of `O=C1CCC(N2Cc3c(NCc4ccc(CCCNC56CC7CC(CC(C7)C5)C6)cc4)cccc3C2=O)C(=O)N1` (centres unmarked) [SIAIS1227077, 3-(4-((4-(3-((adamantan-1-yl)amino)propyl)benzyl)amino)-1-oxoisoindolin-2-yl)piperidine-2,6-dione], the IC50 is 1.93 ± 0.31 nM.
On to `O=C1CCC(N2Cc3c(OCc4ccc(CNC56CC7CC(CC(C7)C5)C6)cc4)cccc3C2=O)C(=O)N1` (centres unmarked) [SIAIS1228157, 3-(4-((4-(((adamantan-1-yl)amino)methyl)benzyl)oxy)-1-oxoisoindolin-2-yl)piperidine-2,6-dione], for which the IC50 turned out to be 0.28 nM.
Under `O=C1CCC(N2C(=O)c3cccc(OCc4ccc(CCNC56CC7CC(CC(C7)C5)C6)cc4)c3C2=O)C(=O)N1` (centres unmarked) [SIAIS1241167, 4-((4-(2-((adamantan-1-yl)amino)ethyl)benzyl)oxy)-2-(2,6-dioxopiperidin-3-yl)isoindoline-1,3-dione] stands 1.95 nM; under `O=C1CCC(N2Cc3c(OCc4ccc(CCNC56CC7CC(CC(C7)C5)C6)cc4)cccc3C2=O)C(=O)N1` (centres unmarked) [SIAIS1241169, 3-(4-((4-(2-((adamantan-1-yl)amino)ethyl)benzyl)oxy)-1-oxoisoindolin-2-yl)piperidine-2,6-dione], 0.123 nM.

Values taken from patent publication US20230096517A1, “GLUTARIMIDE SKELETON-BASED COMPOUNDS AND APPLICATION THEREOF” (SHANGHAITECH UNIVERSITY, priority 2020, published 2023).
